We go through four molecules from patent publication US6492422B2, “Tricyclic sulfonamides and their derivatives as inhibitors of matrix metalloproteinases” (Warner-Lambert Company, priority 1998, dated 2002).

Data set [1] addresses T1, MMP-1FL (collagenase-1 full length enzyme) (Homo sapiens, UniProt P03956).
T1 construct: MMP-IFL (collagenase-1 full length enzyme)
T1 sequence (P03956 100-469): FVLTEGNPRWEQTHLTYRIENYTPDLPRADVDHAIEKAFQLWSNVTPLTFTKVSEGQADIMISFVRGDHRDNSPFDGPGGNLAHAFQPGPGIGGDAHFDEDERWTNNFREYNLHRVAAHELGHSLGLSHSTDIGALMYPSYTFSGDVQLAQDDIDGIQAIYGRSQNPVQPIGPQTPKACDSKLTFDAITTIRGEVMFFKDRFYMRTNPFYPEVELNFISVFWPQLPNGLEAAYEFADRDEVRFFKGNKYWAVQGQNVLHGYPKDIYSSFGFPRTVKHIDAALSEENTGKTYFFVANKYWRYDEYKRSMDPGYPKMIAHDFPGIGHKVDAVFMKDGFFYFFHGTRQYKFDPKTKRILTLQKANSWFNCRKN
The experiment in a line: MMP inhibition, thiopeptolide substrate, MMP-1FL. It is filed as biochemical. The conditions noted are these: thiopeptolide substrate Ac-Pro-Leu-Gly-thioester-Leu-Leu-Gly-OEt. Here is the method: (§1) Experiments were carried out with the full-length and catalytic domains of the proteinases. […] IC50 values were determined using a thiopeptolide substrate, Ac-Pro-Leu-Gly-thioester-Leu-Leu-Gly-OEt (Ye Q.-Z., Johnson L. L., Hupe D. J., and Baragi V., “Purification and Characterization of the Human Stromelysin Catalytic Domain Expressed in Escherichia coli,” Biochemistry, 1992;31:11231-11235; Ye Q.-Z., Johnson L. L., Yu A. E., and Hupe D., “Reconstructed 19 kDa catalytic domain of gelatinase A is an active proteinase,” i Biochemistry, 1995;34:47024708.) MMP-13CD was expressed from a synthetic gene and purified from Escherichia coli cell culture according to a previously described method (Ye Q.-Z., Johnson L. L., and Baragi V., “Gene synthesis and expression in E. coli for PUMP, a human matrix metalloproteinase,” Biochemical and Biophysical Research Communications, 1992;186:143-149).

Data set [2] addresses MMP-2CD (gelatinase A catalytic domain) (Homo sapiens, UniProt P08253). Briefly: MMP inhibition, thiopeptolide substrate, MMP-2CD. Particulars: thiopeptolide substrate Ac-Pro-Leu-Gly-thioester-Leu-Leu-Gly-OEt. It is filed as biochemical. Here is the method: as §1
Data set [3] concerns the target T2, MMP-2FL (gelatinase A full length enzyme) (Homo sapiens, UniProt P08253).
T2 construct: Experiments were carried out with the full-length and catalytic domains of the proteinases
T2 sequence (P08253 110-660): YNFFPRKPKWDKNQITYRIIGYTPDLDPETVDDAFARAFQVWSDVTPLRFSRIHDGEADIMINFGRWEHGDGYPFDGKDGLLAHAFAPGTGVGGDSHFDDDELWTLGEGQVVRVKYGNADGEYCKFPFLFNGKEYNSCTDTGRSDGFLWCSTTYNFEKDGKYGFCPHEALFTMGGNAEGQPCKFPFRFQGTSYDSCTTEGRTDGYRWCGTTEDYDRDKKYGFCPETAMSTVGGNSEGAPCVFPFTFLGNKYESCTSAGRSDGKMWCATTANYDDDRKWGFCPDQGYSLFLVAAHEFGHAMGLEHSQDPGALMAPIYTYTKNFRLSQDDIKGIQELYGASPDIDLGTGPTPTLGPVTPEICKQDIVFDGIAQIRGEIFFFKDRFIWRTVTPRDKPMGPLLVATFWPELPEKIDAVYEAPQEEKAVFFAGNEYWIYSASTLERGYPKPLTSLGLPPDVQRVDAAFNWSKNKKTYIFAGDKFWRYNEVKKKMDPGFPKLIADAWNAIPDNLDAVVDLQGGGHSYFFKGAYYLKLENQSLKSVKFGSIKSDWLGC
Briefly: MMP inhibition, thiopeptolide substrate, MMP-2FL. It is filed as biochemical. The conditions noted are these: thiopeptolide substrate Ac-Pro-Leu-Gly-thioester-Leu-Leu-Gly-OEt. The method, then:
as §1

Data set [4] addresses T3, MMP-3CD (stromelysin-1 catalytic domain) (Homo sapiens, UniProt P08254).
T3 construct: MMP-3CD (stromelysin-1 catalytic domain)
The experiment in a line: MMP inhibition, thiopeptolide substrate, MMP-3CD. The class given is biochemical. Particulars: thiopeptolide substrate Ac-Pro-Leu-Gly-thioester-Leu-Leu-Gly-OEt. The method, then: as §1

The target in data set [5] is T4, MMP-7FL (matrilysin full length enzyme) (Homo sapiens, UniProt P09237).
T4 construct: MMP-7FL (matrilysin full length enzyme)
T4 sequence (P09237 95-267): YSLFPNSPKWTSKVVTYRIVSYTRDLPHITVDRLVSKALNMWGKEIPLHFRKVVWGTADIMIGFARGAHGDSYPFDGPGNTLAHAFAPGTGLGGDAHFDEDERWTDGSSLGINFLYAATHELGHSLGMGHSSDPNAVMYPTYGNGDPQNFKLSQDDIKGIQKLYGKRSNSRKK
Briefly: MMP inhibition, thiopeptolide substrate, MMP-7FL. The conditions noted are these: thiopeptolide substrate Ac-Pro-Leu-Gly-thioester-Leu-Leu-Gly-OEt. It is filed as biochemical. Here is the method: as §1

The target in data set [6] is T5, MMP-9FL (gelatinase B full length enzyme) (Homo sapiens, UniProt P14780).
T5 construct: MMP-9-FL (gelatinase B full length enzyme)
The experiment in a line: MMP inhibition, thiopeptolide substrate, MMP-9FL. Particulars: thiopeptolide substrate Ac-Pro-Leu-Gly-thioester-Leu-Leu-Gly-OEt. It is filed as biochemical. Here is the method:
as §1

Data set [7] addresses T6, MMP-13CD (collagenase-3 catalytic domain) (Homo sapiens, UniProt P45452).
T6 construct: MMP-13CD (collagenase-3 catalytic domain); made in house; host or cells: Escherichia coli
Briefly: MMP inhibition, thiopeptolide substrate, MMP-13CD. It is filed as biochemical. The conditions noted are these: thiopeptolide substrate Ac-Pro-Leu-Gly-thioester-Leu-Leu-Gly-OEt; catalytic domain expressed in Escherichia coli. Here is the method: as §1

The target of data set [8] is MMP-14CD (membrane-type MMP-1) (Homo sapiens, UniProt P50281). Briefly: MMP inhibition, thiopeptolide substrate, MMP-14CD. The class given is biochemical. The conditions noted are these: thiopeptolide substrate Ac-Pro-Leu-Gly-thioester-Leu-Leu-Gly-OEt; catalytic domain. Here is the method:
as §1

T3 sequence (P08254 100-272 limits assumed): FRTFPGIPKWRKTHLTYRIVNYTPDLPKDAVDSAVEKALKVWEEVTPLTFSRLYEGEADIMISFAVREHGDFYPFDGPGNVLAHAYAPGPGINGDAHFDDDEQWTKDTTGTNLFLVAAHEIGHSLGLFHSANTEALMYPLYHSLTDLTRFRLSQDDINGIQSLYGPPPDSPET
T5 sequence (P14780 94-707): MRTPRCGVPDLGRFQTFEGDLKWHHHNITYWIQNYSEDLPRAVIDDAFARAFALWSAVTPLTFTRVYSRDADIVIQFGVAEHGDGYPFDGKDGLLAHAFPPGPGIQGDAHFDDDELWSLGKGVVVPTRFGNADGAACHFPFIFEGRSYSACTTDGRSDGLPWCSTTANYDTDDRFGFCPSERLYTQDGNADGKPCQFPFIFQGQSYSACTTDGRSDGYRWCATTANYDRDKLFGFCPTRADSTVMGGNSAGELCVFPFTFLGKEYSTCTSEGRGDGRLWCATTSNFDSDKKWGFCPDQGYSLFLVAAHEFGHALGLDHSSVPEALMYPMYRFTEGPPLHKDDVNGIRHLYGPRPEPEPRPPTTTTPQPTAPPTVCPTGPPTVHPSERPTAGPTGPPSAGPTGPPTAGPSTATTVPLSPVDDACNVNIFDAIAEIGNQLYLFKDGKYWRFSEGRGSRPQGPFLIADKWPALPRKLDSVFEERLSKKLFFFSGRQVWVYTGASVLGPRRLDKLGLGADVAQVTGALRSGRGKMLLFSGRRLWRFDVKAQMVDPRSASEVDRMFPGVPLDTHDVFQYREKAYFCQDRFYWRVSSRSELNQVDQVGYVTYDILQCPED
Sequence of MMP-2CD (gelatinase A catalytic domain) (P08253 with tags, fused parts or gaps DEL222-396): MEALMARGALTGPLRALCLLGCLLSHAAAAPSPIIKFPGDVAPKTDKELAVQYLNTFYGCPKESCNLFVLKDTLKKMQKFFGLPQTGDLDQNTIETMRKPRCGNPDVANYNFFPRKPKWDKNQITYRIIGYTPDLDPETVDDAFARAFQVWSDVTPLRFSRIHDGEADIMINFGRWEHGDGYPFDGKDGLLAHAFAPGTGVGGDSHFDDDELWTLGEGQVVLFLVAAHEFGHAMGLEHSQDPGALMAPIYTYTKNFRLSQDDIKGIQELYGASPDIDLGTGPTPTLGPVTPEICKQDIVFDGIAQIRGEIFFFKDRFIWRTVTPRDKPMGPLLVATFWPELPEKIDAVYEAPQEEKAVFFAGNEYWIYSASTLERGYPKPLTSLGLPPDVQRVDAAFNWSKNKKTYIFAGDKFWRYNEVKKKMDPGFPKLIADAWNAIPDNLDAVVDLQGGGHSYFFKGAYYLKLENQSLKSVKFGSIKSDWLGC

On to `CC(C)[C@@H](NS(=O)(=O)c1ccc2c3c(oc2c1)CCCC3)C(=O)O` [Example 1, (R) 3-Methyl-2-(6,7,8,9-tetrahydro-dibenzofuran-3-sulfonylamino)-butyric Acid], for which the half-maximal inhibitory concentration (IC50) in [1] was 6.7 µM; in data set [2] it was 0.037 µM; in data set [3] it was 0.335 µM; in data set [4], 0.046 µM; in data set [5], 82 µM; in data set [6], 30 µM. Further, the values for the 50% inhibitory concentration (IC50) in data set [7] and in data set [8] were 3.45 µM and 0.38 µM, respectively.

The molecule `CC(C)[C@H](NS(=O)(=O)c1ccc2c3c(oc2c1)CCCC3)C(=O)O` [Example 2, (S) 3-Methyl-2-(6,7,8,9-tetrahydro-dibenzofuran-3-sulfonylamino)-butyric Acid] registered a melting point of 162 to 165 °C. The same molecule came in with a half-maximal inhibitory concentration (IC50) in data set [1] of 6.05 µM. Moreover, in data set [2], the IC50 was found to be 0.034 µM. Moreover, the midpoint of inhibition in [3], the IC50, lay at 0.43 µM. This molecule showed a half-inhibitory concentration (IC50) in data set [4] of 0.0245 µM. For the same molecule, it took 7.5 µM to reach half-maximal inhibition in data set [5] (IC50). The IC50 in data set [6] is 100 µM. In [7], this molecule came in with a concentration for half-maximal inhibition (IC50) of 2.3 µM. For the same molecule, the half-inhibitory concentration (IC50) in data set [8] turned out to be 0.155 µM.

`O=C(O)C[C@H](NS(=O)(=O)c1ccc2c3c(oc2c1)CCCC3)C(=O)O` [Example 3, (S) 2-(6,7,8,9-Tetrahydro-dibenzofuran-3-sulfonylamino)-succinic Acid] returned a melting point of 176 to 179 °C. In data set [1], half-maximal inhibition (IC50) was put at 16 µM. Besides, in [2], the half-maximal inhibitory concentration (IC50) came out at 0.0167 µM. In addition, the 50% inhibitory concentration (IC50) in [3] was 0.45 µM. In addition, the half-inhibitory concentration (IC50) in [4] came out at 0.0056 µM. Besides, in data set [5], half-maximal inhibition (IC50) was put at 3.2 µM. Besides, in [6], half-maximal inhibition (IC50) was put at 100 µM. For the same molecule, the IC50 in data set [7] stood at 0.97 µM. The molecule also yielded an IC50 in data set [8] of 0.048 µM.

In turn, `O=C(O)[C@H](CCc1ccccc1)NS(=O)(=O)c1ccc2c3c(oc2c1)CCCC3` [Example 4, (S) 4-Phenyl-2-(6,7,8,9-tetrahydro-dibenzofuran-3-sulfonylamino)-butyric Acid] returned a melting point of 167 to 169 °C. Inhibition in [1] was half-maximal at 25 µM (IC50). This molecule displayed an IC50 in data set [2] of 0.018 µM. In data set [3], this molecule displayed an IC50 of 0.15 µM. The half-maximal inhibitory concentration (IC50) in data set [4] was 0.0215 µM. Also, the half-inhibitory concentration (IC50) in [5] stood at 2.3 µM. Moreover, the IC50 in data set [6] worked out at 28 µM. The molecule also gave a half-inhibitory concentration (IC50) in data set [7] of 1.34 µM. In data set [8], the IC50 was determined as 0.064 µM.

What is called IC50 is the point on the concentration scale where inhibition reaches its midpoint. A lower IC50 goes with greater potency in that assay. The term melting point denotes the temperature, or range, at which the solid turns liquid.
